Experiment [1] concerns the target T1, N-terminal Xaa-Pro-Lys N-methyltransferase 1 (Homo sapiens, UniProt Q9BV86).
T1 sequence (Q9BV86 whole entry): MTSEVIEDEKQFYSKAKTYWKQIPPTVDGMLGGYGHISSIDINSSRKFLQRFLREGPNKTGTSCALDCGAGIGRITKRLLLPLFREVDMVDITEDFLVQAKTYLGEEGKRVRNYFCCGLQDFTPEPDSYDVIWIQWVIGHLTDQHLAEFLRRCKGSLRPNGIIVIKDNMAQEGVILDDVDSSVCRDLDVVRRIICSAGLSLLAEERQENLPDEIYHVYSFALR
The experiment in a line: Inhibition of full length His-NTMT1 (1 to 222 residues) (unknown origin) expressed in Escherichia coli BL21 (DE3) assessed as SAH production by Mtase-glo luminescence assay.

The target in experiment [2] is T1, N-terminal Xaa-Pro-Lys N-methyltransferase 1.
Description: Binding affinity to NTMT1 (unknown origin) assessed as dissociation constant in presence of SAM by isothermal titration calorimetry analysis
The target is the same in experiment [3]. This is another data set of the same source.
Description: Binding affinity to NTMT1 (unknown origin)assessed as dissociation constant in absence of SAM by isothermal titration calorimetry analysis
Experiment [4] has the same target. Kind of experiment: Inhibition of full length NTMT1 (1 to 222 residues) (unknown origin) expressed in Escherichia coli BL21 (DE3) using GPKRIA as substrate preincubated for 10 mins followed by substrate addition measured after 15 mins by microplate reader method.

The values below come from ChEMBL document CHEMBL5113528 (J Med Chem, 2022).

SMILES strings stand for the structures. Some results are limits rather than exact numbers.

As usually defined, the IC50 is the concentration that gives 50% inhibition. With `C/N=c1\nc(-c2ccccc2)n(-c2ccccc2)s1`, the half-inhibitory concentration (IC50) in experiment [1] was determined as 460 nM.
As usually defined, the Kd is the equilibrium constant for the complex coming apart. A lower Kd goes with a tighter complex. With `CC(C)(NC(=O)O[C@@H]1CN2CCC1CC2)c1csc(-c2ccc(F)cc2)n1`, the dissociation constant Kd worked out at 32.5 nM in experiment [2] and 160 nM in experiment [3].
`CC(C)(NC(=O)O[C@@H]1CN2CCC1CC2)c1csc(-c2ccc(CCC(=O)O)cc2)n1`: the IC50 in experiment [4] is over 100000 nM.
Same read-out and setting: as for `CC(C)(NC(=O)O[C@@H]1CN2CCC1CC2)c1csc(-c2ccccc2)n1`, the figure is 2700 nM; as for `Cc1nc(C(C)(C)NC(=O)O[C@@H]2CN3CCC2CC3)cs1`, over 100000 nM; as for `CC(C)(NC(=O)OC1CCCCC1)c1csc(-c2ccc(F)cc2)n1`, over 100000 nM.
On to `CC(C)(NC(=O)O[C@@H]1CN2CCC1CC2)c1csc(-c2ccc(Br)cc2)n1`, for which half-maximal inhibition in experiment [4] (IC50) required 1500 nM.
For `CC(C)OC(=O)NC(C)(C)c1csc(-c2ccc(F)cc2)n1`, in experiment [4], the 50% inhibitory concentration (IC50) was over 100000 nM.
Turning to `CC(C)(NC(=O)O[C@@H]1CN2CCC1CC2)c1csc(-c2ccc(/C=C/C(=O)O)cc2)n1`, in experiment [4], the IC50 is over 100000 nM.
As to `Cc1ccc(-c2nc(C(C)(C)NC(=O)O[C@@H]3CN4CCC3CC4)cs2)cc1`, half-maximal inhibition in experiment [4] (IC50) was put at 1700 nM.
